Assay [1] concerns the target Neuropeptide Y receptor type 1 (Homo sapiens, UniProt P25929). It counts as functional.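 Also: HEK293 cells with a CNG channel challenged with NPY then isoproterenol; potency as antagonist that reverses NPY suppression of cAMP signal.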
The nature of assay [2]: Trypanosoma cruzi growth suppression in host cells – NIH3T3 host cells, beta-gal luminescence, confirmation (AID 2044).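 Also: intracellular parasites grown in NIH/3T3 mouse fibroblasts as host cells; luminescent beta-galactosidase reporter signal from transgenic T. cruzi replicating inside host cells; inhibitors lower the luminescence signal.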 It counts as functional, cell-based.
Assay [3] has as its target Neuropeptide Y receptor type 2 (Homo sapiens, UniProt P49146). It counts as functional, cell-based.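 Also: HEK293 cells expressing the receptor and a CNG channel; stimulus was NPY near EC95 followed by isoproterenol to raise cAMP; antagonist potency measured as restoring cAMP signal that NPY suppresses.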
Assay [4] in a line: viability of PTEN-deleted HCT116 cells – cell-based, HCT116 PTEN knockout, dose response (AID 1047).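 Also: HCT116 colon tumor cells with PTEN knocked out; cells exposed to compound for 60 hours before readout; potency for loss of cell viability measured by luminescence.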 Format: functional.
The nature of assay [5]: NIH3T3 cell viability loss – ATP luminescence, mouse fibroblasts, counter-screen, dose response (AID 2010).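 Also: cells exposed to compound for about 90 hours before reading.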 Format: functional, cell-based. (Counterscreens check selectivity or assay interference.)
Assay [6] in a line: viability of HCT116 lacking mutant beta-catenin – cell-based, human colon tumor, dose response (AID 1045).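 Also: HCT116 colon tumor cells with beta catenin knocked out; cells exposed to compound for 60 hours.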 Format: functional.
The target of assay [7] is RNA-editing ligase 1, mitochondrial (Trypanosoma brucei brucei, UniProt P86926). Nature of the assay: inhibition of trypanosome RNA editing ligase – biochemical, fluorescence, Trypanosoma brucei, dose response (AID 1117295). Format: functional.
In assay [8] the target is T1, Mannose-6-phosphate isomerase (Homo sapiens, UniProt P34949).
T1 sequence (P34949 whole entry): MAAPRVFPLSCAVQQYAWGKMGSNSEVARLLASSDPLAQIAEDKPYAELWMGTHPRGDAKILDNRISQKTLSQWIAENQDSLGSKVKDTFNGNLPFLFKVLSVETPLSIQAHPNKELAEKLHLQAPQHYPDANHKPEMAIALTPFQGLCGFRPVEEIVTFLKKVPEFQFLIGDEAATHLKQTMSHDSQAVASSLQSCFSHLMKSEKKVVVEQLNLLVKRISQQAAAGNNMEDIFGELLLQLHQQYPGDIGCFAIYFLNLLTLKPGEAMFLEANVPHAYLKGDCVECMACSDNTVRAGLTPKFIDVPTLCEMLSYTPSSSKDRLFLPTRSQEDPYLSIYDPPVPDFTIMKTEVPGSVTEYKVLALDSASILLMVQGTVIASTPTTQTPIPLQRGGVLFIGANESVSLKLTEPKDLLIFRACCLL
Nature of the assay: MPI enzyme activity inhibition – biochemical, fluorescence intensity, coupled assay, primary screen (AID 1209).

The target in assay [9] is T1, Mannose-6-phosphate isomerase. Nature of the assay: MPI inhibition at elevated mannose 6-phosphate – biochemical, fluorescence intensity, high mannose 6-phosphate, primary screen (AID 1220).
In assay [10] the target is T2, Replicative DNA helicase DnaB (Mycobacterium tuberculosis, UniProt P9WMR3).
T2 sequence (P9WMR3 whole entry): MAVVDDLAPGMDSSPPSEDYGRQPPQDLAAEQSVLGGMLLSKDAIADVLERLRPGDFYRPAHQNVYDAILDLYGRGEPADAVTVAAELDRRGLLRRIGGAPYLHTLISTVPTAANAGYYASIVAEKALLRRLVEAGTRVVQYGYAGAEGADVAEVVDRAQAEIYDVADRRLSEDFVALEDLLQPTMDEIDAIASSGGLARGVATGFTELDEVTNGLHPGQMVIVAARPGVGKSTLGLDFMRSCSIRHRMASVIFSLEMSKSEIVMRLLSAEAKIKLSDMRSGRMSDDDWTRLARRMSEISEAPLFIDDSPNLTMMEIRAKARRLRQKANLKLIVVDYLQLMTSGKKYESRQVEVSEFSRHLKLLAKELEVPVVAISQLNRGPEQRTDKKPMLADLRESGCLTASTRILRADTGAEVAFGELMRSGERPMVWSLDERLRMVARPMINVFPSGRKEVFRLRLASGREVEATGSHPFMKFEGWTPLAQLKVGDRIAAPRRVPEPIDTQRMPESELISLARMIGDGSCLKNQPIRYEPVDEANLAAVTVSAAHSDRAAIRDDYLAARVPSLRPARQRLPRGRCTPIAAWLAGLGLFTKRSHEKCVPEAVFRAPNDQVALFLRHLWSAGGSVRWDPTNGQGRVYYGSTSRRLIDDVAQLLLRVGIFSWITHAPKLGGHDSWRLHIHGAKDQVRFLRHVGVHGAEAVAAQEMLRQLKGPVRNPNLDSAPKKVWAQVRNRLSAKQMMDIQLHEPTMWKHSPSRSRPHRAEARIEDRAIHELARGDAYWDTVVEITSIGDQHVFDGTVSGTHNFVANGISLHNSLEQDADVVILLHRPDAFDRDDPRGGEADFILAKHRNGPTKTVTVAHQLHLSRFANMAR
The assay can be described thus: DnaB intein splicing inhibitors, dose response, biochemical, cell-free fluorescence (AID 449749). Format: functional.

Assay [11] has as its target T3, Protein RecA (Mycobacterium tuberculosis, UniProt P9WHJ3).
T3 sequence (P9WHJ3 whole entry): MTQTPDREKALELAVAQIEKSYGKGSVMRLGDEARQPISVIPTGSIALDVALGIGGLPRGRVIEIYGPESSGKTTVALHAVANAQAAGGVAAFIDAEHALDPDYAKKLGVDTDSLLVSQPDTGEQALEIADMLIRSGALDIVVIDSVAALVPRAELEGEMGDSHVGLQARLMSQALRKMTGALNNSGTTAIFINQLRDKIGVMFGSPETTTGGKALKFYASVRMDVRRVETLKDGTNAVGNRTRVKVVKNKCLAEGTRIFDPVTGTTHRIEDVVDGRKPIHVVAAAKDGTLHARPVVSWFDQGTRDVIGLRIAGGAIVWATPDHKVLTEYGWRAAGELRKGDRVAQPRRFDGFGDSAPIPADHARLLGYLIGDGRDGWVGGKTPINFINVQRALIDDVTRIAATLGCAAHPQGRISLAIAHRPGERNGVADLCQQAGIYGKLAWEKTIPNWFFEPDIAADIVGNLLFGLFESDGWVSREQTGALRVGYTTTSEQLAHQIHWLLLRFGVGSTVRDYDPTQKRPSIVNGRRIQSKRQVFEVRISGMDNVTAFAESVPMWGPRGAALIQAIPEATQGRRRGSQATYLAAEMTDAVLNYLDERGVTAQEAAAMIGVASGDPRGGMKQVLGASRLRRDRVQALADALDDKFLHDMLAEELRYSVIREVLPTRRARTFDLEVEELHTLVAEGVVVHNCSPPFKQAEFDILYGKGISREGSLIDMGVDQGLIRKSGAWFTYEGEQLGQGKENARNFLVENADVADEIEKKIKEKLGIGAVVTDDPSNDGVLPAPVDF
Nature of the assay: Fluorescence Cell-Free Homogeneous Dose Retest to Identify Inhibitors of RecA-Intein Splicing Activity. [Related pubchem assays (depositor defined):AID2097, AID2223, AID489010, AID492950]. It counts as functional.

Assay [12] deals with Genome polyprotein (dengue virus type 2, UniProt P29990). The assay can be described thus: flavivirus cap methylation enzyme inhibition – biochemical, confirmation dose response, primary screen (AID 588689). Format: functional.
In assay [13] the test system is Streptococcus sp. 'group A'. Nature of the assay: Streptococcus pyogenes SK(-)GAS viability under kanamycin – luminescence, BacTiterGlo, confirmation, counter-screen for streptokinase expression inhibitor project, dose response (AID 1900). It counts as functional, organism-based.
The subject of assay [14] is Streptococcus. The assay can be described thus: Luminescence Microorganism-Based Dose Response Follow up to Identify Compounds Cytotoxic to Streptococcus. [Related pubchem assays: 1677 (Project Summary), 1915, 1914, 1902 (Retest at Dose), 1900 (Counter Screen), 1662 (Primary HTS)]. Format: functional, organism-based.
Assay [15] has as its target T4, Streptokinase A (Streptococcus pyogenes serotype M1, UniProt P10520).
T4 sequence (P10520 whole entry): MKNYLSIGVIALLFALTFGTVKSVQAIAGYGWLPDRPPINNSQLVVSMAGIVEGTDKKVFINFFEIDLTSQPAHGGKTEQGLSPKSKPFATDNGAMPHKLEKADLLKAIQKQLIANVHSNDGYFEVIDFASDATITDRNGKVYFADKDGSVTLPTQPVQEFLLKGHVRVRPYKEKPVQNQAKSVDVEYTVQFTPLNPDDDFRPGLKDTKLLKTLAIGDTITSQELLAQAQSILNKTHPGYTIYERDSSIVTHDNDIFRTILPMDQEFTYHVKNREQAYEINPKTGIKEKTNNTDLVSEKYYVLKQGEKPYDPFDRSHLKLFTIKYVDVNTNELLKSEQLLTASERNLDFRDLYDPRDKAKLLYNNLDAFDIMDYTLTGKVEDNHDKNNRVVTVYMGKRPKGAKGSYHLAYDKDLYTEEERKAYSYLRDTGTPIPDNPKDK
Nature of the assay: viability-normalized secreted streptokinase activity reduction – plasminogen activation absorbance, OD405, dose response (AID 1914).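 Also: secreted streptokinase activity via plasminogen activation per viability signal from cell pellet.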 Format: functional, Streptococcus pyogenes M1 GAS.

Assay [16] has as its system Streptococcus. Nature of the assay: GAS UMAA2166 growth inhibition – luminescence, BacTiterGlo, counter-screen for streptokinase expression inhibitor project, dose response (AID 1915).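 Also: potency for reduction of bacterial viability or growth.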 It counts as functional, organism-based.
The target in assay [17] is Melanin-concentrating hormone receptor 1 (Homo sapiens, UniProt Q99705). The assay can be described thus: Fluorescence-based counterscreen for antagonists of the G-protein coupled receptor 7 (GPR7): cell-based high throughput dose response assay to identify antagonists of the melanin-concentrating hormone receptor 1 (MCHR1). It counts as functional.

Activity calls are given as the source filed them. Some results are limits rather than exact numbers.

The results in this text go back to ChEMBL document CHEMBL1201862, “PubChem BioAssay data set” (2004).

Chain of Melanin-concentrating hormone receptor 1 (Q99705 whole entry): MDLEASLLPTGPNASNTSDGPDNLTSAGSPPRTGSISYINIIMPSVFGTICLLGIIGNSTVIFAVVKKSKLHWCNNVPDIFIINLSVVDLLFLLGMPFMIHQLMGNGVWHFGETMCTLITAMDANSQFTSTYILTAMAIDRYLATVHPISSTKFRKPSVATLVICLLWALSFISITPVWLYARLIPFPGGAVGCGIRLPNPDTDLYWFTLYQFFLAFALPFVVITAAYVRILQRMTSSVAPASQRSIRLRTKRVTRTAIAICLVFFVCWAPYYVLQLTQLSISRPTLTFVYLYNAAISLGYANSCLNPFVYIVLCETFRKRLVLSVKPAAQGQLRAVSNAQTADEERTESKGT
Chain of Genome polyprotein (P29990 2492-3391 limits assumed): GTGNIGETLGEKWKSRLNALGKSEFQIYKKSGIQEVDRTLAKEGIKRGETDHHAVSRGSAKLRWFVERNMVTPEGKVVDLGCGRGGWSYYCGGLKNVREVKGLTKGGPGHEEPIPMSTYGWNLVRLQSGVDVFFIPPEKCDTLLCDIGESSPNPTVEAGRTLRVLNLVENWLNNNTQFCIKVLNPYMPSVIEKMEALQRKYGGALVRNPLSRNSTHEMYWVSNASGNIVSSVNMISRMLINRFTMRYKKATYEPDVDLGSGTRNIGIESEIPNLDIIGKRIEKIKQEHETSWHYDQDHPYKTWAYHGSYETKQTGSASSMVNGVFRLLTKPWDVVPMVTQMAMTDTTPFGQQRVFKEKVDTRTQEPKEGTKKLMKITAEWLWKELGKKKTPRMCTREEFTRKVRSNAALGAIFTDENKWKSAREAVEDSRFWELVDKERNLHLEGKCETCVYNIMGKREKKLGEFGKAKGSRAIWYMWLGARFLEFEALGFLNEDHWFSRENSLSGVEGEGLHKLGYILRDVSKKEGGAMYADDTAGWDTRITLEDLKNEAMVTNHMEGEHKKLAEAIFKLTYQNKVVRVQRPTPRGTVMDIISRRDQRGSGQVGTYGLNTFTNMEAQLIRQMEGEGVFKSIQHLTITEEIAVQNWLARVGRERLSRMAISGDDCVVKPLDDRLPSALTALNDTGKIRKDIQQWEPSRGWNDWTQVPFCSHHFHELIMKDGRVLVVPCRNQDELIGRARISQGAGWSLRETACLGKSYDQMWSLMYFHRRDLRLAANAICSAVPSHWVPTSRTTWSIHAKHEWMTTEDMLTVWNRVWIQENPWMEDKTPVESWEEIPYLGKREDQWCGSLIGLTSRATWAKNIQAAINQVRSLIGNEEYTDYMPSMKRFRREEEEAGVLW
Chain of RNA-editing ligase 1, mitochondrial (P86926 whole entry): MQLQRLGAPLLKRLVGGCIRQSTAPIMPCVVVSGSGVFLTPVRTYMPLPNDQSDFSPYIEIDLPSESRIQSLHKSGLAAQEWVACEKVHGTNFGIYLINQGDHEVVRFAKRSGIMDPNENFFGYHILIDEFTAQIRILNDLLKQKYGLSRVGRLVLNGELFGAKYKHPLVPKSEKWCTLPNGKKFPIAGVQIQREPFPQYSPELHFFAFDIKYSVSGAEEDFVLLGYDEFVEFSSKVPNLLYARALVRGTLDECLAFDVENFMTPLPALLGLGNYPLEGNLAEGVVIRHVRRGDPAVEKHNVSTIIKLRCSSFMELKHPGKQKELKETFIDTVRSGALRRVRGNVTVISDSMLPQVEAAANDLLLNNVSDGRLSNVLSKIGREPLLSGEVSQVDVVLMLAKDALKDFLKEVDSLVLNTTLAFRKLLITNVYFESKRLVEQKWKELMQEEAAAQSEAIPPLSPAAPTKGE
Chain of Neuropeptide Y receptor type 1 (P25929 whole entry): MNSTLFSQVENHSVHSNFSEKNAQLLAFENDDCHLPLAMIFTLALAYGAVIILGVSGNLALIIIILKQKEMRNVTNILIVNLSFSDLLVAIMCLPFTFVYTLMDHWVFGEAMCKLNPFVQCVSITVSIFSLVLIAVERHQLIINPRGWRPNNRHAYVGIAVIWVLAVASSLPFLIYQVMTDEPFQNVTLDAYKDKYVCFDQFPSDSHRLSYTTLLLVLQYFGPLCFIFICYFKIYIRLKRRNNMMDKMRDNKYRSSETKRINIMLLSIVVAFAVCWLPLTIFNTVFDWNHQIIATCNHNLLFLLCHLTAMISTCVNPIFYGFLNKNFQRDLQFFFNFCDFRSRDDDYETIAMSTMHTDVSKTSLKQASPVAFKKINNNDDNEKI
Chain of Neuropeptide Y receptor type 2 (P49146 whole entry): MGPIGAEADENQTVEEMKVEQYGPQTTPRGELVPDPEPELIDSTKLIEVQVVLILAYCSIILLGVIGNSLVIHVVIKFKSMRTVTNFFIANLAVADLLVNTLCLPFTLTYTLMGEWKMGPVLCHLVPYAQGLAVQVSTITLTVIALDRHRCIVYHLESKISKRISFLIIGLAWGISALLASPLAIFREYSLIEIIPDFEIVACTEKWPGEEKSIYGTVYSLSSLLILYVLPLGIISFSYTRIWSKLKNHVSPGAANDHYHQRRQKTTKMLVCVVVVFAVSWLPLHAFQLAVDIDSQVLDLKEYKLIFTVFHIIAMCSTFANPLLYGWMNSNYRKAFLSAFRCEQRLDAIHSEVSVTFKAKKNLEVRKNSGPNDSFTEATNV

In general, IC50 refers to the concentration that inhibits the measured activity by half. The term EC50 denotes the concentration that produces a half-maximal response. As to `Cc1cc(Cl)c(OCCCNCc2ccccc2)c(Br)c1`, the half-maximal inhibitory concentration (IC50) in assay [1] was 5.39 µM (active); in assay [3], 5.15 µM (active); in assay [7], > 96.6 µM (inactive). The EC50 in assay [2] was 1.86 µM (active); in assay [4], 21.9 µM (active); in [5], 14.3 µM (active); in assay [6] it was 16.5 µM (active).

The term AC50 denotes the midpoint of the concentration-response curve, whichever way the signal moves. Regarding `Cn1c(/N=C/c2c(O)ccc3ccccc23)nc2ccccc21`, the half-maximal inhibitory concentration (IC50) in [8] was > 50 µM (not active); in assay [9] it was 14.8 µM (active); in assay [12] it was 9.6 µM (active). Also, the concentration at half-maximal activity (AC50) in [10] was 7.16 µM (active). Besides, in [11], the EC50 is 5.19 µM (active).

Consider `Cc1noc(C)c1CSc1nc2sc(C)c(C)c2c(=O)n1C1CCCC1`, for which the EC50 was 5.22 µM (active) in assay [13], > 500 µM (not active) in [14], 3.31 µM (active) in assay [15] and > 150 µM (not active) in assay [16].

Regarding `CC(C)Cc1cc(C(=O)N2CCCC(CO)(Cc3ccc(F)cc3F)C2)[nH]n1` (configuration not stated), the IC50 in assay [17] is on record as 33 µM (not active).
